Results from patent publication US20250230193A1, “CYCLIC COMPOUND HAVING SELECTIVE KRAS INHIBITORY EFFECT ON HRAS AND NRAS” (CHUGAI SEIYAKU KABUSHIKI KAISHA, priority 2022, published 2025).

What was measured:
[1] = biological target: GDP-bound NRAS wild-type protein (Homo sapiens, UniProt P01111); assay: Binding to NRAS by surface plasmon resonance (SPR), Single Cycle Kinetics; settings: KD ratio NRAS/KRAS, SPR, GDP-bound wild-type proteins
[2] = biological target: GDP-bound HRAS wild-type protein (Homo sapiens, UniProt P01112); assay: Binding to HRAS by surface plasmon resonance (SPR), Single Cycle Kinetics; settings: KD ratio HRAS/KRAS, SPR, GDP-bound wild-type proteins
Chain of GDP-bound HRAS wild-type protein (P01112 whole entry): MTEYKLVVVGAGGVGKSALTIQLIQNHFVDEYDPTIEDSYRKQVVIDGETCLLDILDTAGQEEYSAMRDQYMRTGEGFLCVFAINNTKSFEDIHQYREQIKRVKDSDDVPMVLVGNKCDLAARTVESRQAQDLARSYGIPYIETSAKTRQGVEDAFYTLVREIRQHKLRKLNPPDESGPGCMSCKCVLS

Chain of GDP-bound NRAS wild-type protein (P01111 whole entry): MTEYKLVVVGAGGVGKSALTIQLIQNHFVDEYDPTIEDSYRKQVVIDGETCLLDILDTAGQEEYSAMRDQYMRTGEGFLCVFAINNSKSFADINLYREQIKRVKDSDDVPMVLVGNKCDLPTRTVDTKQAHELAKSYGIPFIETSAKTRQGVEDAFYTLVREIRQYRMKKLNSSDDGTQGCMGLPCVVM

## CCO[C@@H]1C[C@H]2C(=O)N(C)C3(CC(C)(C)C3)C(=O)N(C)[C@@H](C3CCCC3)C(=O)N(C)[C@H](C(=O)N(C)C)CC(=O)N(C)[C@H]3CCC/C=C/c4ccc(cc4)C[C@@H](C(=O)N(C)CC(=O)N[C@@H](CCc4ccc(Cl)c(Cl)c4)C(=O)N2C1)N1CC/C=C\C[C@@H](C1=O)N(C)C(=O)CN(C1CC1)C(=O)[C@H]([C@@H](C)CC)NC3=O [PP3061]
[1]
  NRAS/KRAS (ratio of KD value with respect to GDP-bound NRAS wild-type protein to KD value with respect to KRAS): A (a compound having 10 or more and less than 20 is denoted as A)
[2]
  HRAS/KRAS (ratio of KD value with respect to GDP-bound HRAS wild-type protein to KD value with respect to KRAS): A (a compound having 10 or more and less than 20 is denoted as A)

## CCO[C@@H]1C[C@H]2C(=O)N(C)C3(CC(C)(C)C3)C(=O)N(C)[C@@H](C3CCCC3)C(=O)N(C)[C@H](C(=O)N(C)C)CC(=O)N(C)[C@H]3CCCC/C=C/c4ccc(cc4)C[C@@H](C(=O)N(C)CC(=O)N[C@@H](CCc4ccc(Cl)c(Cl)c4)C(=O)N2C1)N1CC/C=C\C[C@@H](C1=O)N(C)C(=O)CN(C)C(=O)[C@H]([C@@H](C)CC)NC3=O [PP3062]
[1]
  NRAS/KRAS (ratio of KD value with respect to GDP-bound NRAS wild-type protein to KD value with respect to KRAS): A (a compound having 10 or more and less than 20 is denoted as A)
[2]
  HRAS/KRAS (ratio of KD value with respect to GDP-bound HRAS wild-type protein to KD value with respect to KRAS): A (a compound having 10 or more and less than 20 is denoted as A)

## CCCO[C@@H]1C[C@H]2C(=O)NC3(CC(C)(C)C3)C(=O)N(C)[C@@H](C(CC)CC)C(=O)N(C)[C@H](C(=O)N(C)C)CC(=O)N(C)[C@H]3CCCc4ccc(cc4)C[C@@H](C(=O)N(C)CC(=O)N[C@@H](CCc4ccc(C(F)(F)F)c(OC)c4)C(=O)N2C1)N1CC/C=C\C[C@@H](C1=O)N(C)C(=O)CN(C)C(=O)[C@H]([C@@H](C)CC)NC3=O [PP3063]
[1]
  NRAS/KRAS (ratio of KD value with respect to GDP-bound NRAS wild-type protein to KD value with respect to KRAS): B (a compound having 3 or more and less than 10 is denoted as B)
[2]
  HRAS/KRAS (ratio of KD value with respect to GDP-bound HRAS wild-type protein to KD value with respect to KRAS): B (a compound having 3 or more and less than 10 is denoted as B)

## CCCO[C@@H]1C[C@H]2C(=O)NC3(CC(C)(C)C3)C(=O)N(C)[C@@H](C3CCCC3)C(=O)N(C)[C@H](C(=O)N3CCCCC3)CC(=O)N(C)[C@H]3CCCc4ccc(cc4)C[C@@H](C(=O)N(C)CC(=O)N[C@@H](CCc4ccc(C(F)(F)F)c(OC)c4)C(=O)N2C1)N1CC/C=C\C[C@@H](C1=O)N(C)C(=O)CN(C)C(=O)[C@H]([C@@H](C)CC)NC3=O [PP3064]
[1]
  NRAS/KRAS (ratio of KD value with respect to GDP-bound NRAS wild-type protein to KD value with respect to KRAS): B (a compound having 3 or more and less than 10 is denoted as B)
[2]
  HRAS/KRAS (ratio of KD value with respect to GDP-bound HRAS wild-type protein to KD value with respect to KRAS): B (a compound having 3 or more and less than 10 is denoted as B)

## CCCO[C@@H]1C[C@H]2C(=O)NC3(CC(C)(C)C3)C(=O)N(C)[C@@H](C3CCCC3)C(=O)N(C)[C@H](C(=O)N3CCCC3)CC(=O)N(C)[C@H]3CCCc4ccc(cc4)C[C@@H](C(=O)N(C)CC(=O)N[C@@H](CCc4ccc(C(F)(F)F)c(OC)c4)C(=O)N2C1)N1CC/C=C\C[C@@H](C1=O)N(C)C(=O)CN(C)C(=O)[C@H]([C@@H](C)CC)NC3=O [PP3065]
[1]
  NRAS/KRAS (ratio of KD value with respect to GDP-bound NRAS wild-type protein to KD value with respect to KRAS): A (a compound having 10 or more and less than 20 is denoted as A)
[2]
  HRAS/KRAS (ratio of KD value with respect to GDP-bound HRAS wild-type protein to KD value with respect to KRAS): B (a compound having 3 or more and less than 10 is denoted as B)

## CCO[C@@H]1C[C@H]2C(=O)NC3(CC(C)(C)C3)C(=O)N(C)[C@@H](C3CCCC3)C(=O)N(C)[C@H](C(=O)N(C)C)CC(=O)N(C)[C@H]3CCCCCCc4ccc(cc4)C[C@@H](C(=O)N(C)CC(=O)N[C@@H](CCc4ccc(C(F)(F)F)c(OC)c4)C(=O)N2C1)N1CC/C=C\C[C@@H](C1=O)N(C)C(=O)CN(C)C(=O)[C@H]([C@@H](C)CC)NC3=O [PP3066]
[1]
  NRAS/KRAS (ratio of KD value with respect to GDP-bound NRAS wild-type protein to KD value with respect to KRAS): A (a compound having 10 or more and less than 20 is denoted as A)
[2]
  HRAS/KRAS (ratio of KD value with respect to GDP-bound HRAS wild-type protein to KD value with respect to KRAS): B (a compound having 3 or more and less than 10 is denoted as B)

## CC[C@H](C)[C@@H]1NC(=O)[C@@H]2CCCCCCc3ccc(cc3)C[C@@H](C(=O)N(C)CC(=O)N[C@@H](CCc3ccc(C(F)(F)F)c(OC)c3)C(=O)N3C[C@H](OC(C)C)C[C@H]3C(=O)NC3(CC(C)(C)C3)C(=O)N(C)[C@@H](C3CCCC3)C(=O)N(C)[C@H](C(=O)N(C)C)CC(=O)N2C)N2CC/C=C\C[C@@H](C2=O)N(C)C(=O)CN(C)C1=O [PP3067]
[1]
  NRAS/KRAS (ratio of KD value with respect to GDP-bound NRAS wild-type protein to KD value with respect to KRAS): A (a compound having 10 or more and less than 20 is denoted as A)
[2]
  HRAS/KRAS (ratio of KD value with respect to GDP-bound HRAS wild-type protein to KD value with respect to KRAS): B (a compound having 3 or more and less than 10 is denoted as B)

## CC[C@H](C)[C@@H]1NC(=O)[C@@H]2CCCCCCc3ccc(cc3)C[C@@H](C(=O)N(C)CC(=O)N[C@@H](CCc3ccc(C(F)(F)F)c(OC)c3)C(=O)N3C[C@H](OC4CCC4)C[C@H]3C(=O)NC3(CC(C)(C)C3)C(=O)N(C)[C@@H](C3CCCC3)C(=O)N(C)[C@H](C(=O)N(C)C)CC(=O)N2C)N2CC/C=C\C[C@@H](C2=O)N(C)C(=O)CN(C)C1=O [PP3068]
[1]
  NRAS/KRAS (ratio of KD value with respect to GDP-bound NRAS wild-type protein to KD value with respect to KRAS): A (a compound having 10 or more and less than 20 is denoted as A)
[2]
  HRAS/KRAS (ratio of KD value with respect to GDP-bound HRAS wild-type protein to KD value with respect to KRAS): B (a compound having 3 or more and less than 10 is denoted as B)

## CC[C@H](C)[C@@H]1NC(=O)[C@@H]2CCCCCCc3ccc(cc3)C[C@@H](C(=O)N(C)CC(=O)N[C@@H](CCc3ccc(C(F)(F)F)c(OC)c3)C(=O)N3CC4(CC4)C[C@H]3C(=O)NC3(CC(C)(C)C3)C(=O)N(C)[C@@H](C3CCCC3)C(=O)N(C)[C@H](C(=O)N(C)C)CC(=O)N2C)N2CC/C=C\C[C@@H](C2=O)N(C)C(=O)CN(C)C1=O [PP3069]
[1]
  NRAS/KRAS (ratio of KD value with respect to GDP-bound NRAS wild-type protein to KD value with respect to KRAS): A (a compound having 10 or more and less than 20 is denoted as A)
[2]
  HRAS/KRAS (ratio of KD value with respect to GDP-bound HRAS wild-type protein to KD value with respect to KRAS): B (a compound having 3 or more and less than 10 is denoted as B)

## CCO[C@@H]1C[C@H]2C(=O)NC3(CC(C)(C)C3)C(=O)N(C)[C@@H](C3CCCC3)C(=O)N(C)[C@H](C(=O)N(C)C)CC(=O)N(C)[C@H]3CCCCCCc4ccc(cc4)C[C@@H](C(=O)N(C)CC(=O)N[C@@H](CCc4ccc(Cl)c(Cl)c4)C(=O)N2C1)N1CC/C=C\C[C@@H](C1=O)N(C)C(=O)CN(C)C(=O)[C@H]([C@@H](C)CC)NC3=O [PP3071]
[1]
  NRAS/KRAS (ratio of KD value with respect to GDP-bound NRAS wild-type protein to KD value with respect to KRAS): A (a compound having 10 or more and less than 20 is denoted as A)
[2]
  HRAS/KRAS (ratio of KD value with respect to GDP-bound HRAS wild-type protein to KD value with respect to KRAS): B (a compound having 3 or more and less than 10 is denoted as B)

## CC[C@H](C)[C@@H]1NC(=O)[C@@H]2CCCCCc3ccc(cc3)C[C@@H](C(=O)N(C)CC(=O)N[C@@H](CCc3ccc(C(F)(F)F)c(OC)c3)C(=O)N3C[C@H](OC(C)C)C[C@H]3C(=O)NC3(CC(C)(C)C3)C(=O)N(C)[C@@H](C3CCCC3)C(=O)N(C)[C@H](C(=O)N(C)C)CC(=O)N2C)N2CC/C=C\C[C@@H](C2=O)N(C)C(=O)CN(C)C1=O [PP3072]
[1]
  NRAS/KRAS (ratio of KD value with respect to GDP-bound NRAS wild-type protein to KD value with respect to KRAS): A (a compound having 10 or more and less than 20 is denoted as A)
[2]
  HRAS/KRAS (ratio of KD value with respect to GDP-bound HRAS wild-type protein to KD value with respect to KRAS): B (a compound having 3 or more and less than 10 is denoted as B)

## CC[C@H](C)[C@@H]1NC(=O)[C@@H]2CCCCCc3ccc(cc3)C[C@@H](C(=O)N(C)CC(=O)N[C@@H](CCc3ccc(C(F)(F)F)c(OC)c3)C(=O)N3C[C@H](OC4CCC4)C[C@H]3C(=O)NC3(CC(C)(C)C3)C(=O)N(C)[C@@H](C3CCCC3)C(=O)N(C)[C@H](C(=O)N(C)C)CC(=O)N2C)N2CC/C=C\C[C@@H](C2=O)N(C)C(=O)CN(C)C1=O [PP3073]
[1]
  NRAS/KRAS (ratio of KD value with respect to GDP-bound NRAS wild-type protein to KD value with respect to KRAS): A (a compound having 10 or more and less than 20 is denoted as A)
[2]
  HRAS/KRAS (ratio of KD value with respect to GDP-bound HRAS wild-type protein to KD value with respect to KRAS): A (a compound having 10 or more and less than 20 is denoted as A)

## CC[C@H](C)[C@@H]1NC(=O)[C@@H]2CCCCCc3ccc(cc3)C[C@@H](C(=O)N(C)CC(=O)N[C@@H](CCc3ccc(C(F)(F)F)c(OC)c3)C(=O)N3CC4(CC4)C[C@H]3C(=O)NC3(CC(C)(C)C3)C(=O)N(C)[C@@H](C3CCCC3)C(=O)N(C)[C@H](C(=O)N(C)C)CC(=O)N2C)N2CC/C=C\C[C@@H](C2=O)N(C)C(=O)CN(C)C1=O [PP3074]
[1]
  NRAS/KRAS (ratio of KD value with respect to GDP-bound NRAS wild-type protein to KD value with respect to KRAS): A (a compound having 10 or more and less than 20 is denoted as A)
[2]
  HRAS/KRAS (ratio of KD value with respect to GDP-bound HRAS wild-type protein to KD value with respect to KRAS): A (a compound having 10 or more and less than 20 is denoted as A)

## CCO[C@@H]1C[C@H]2C(=O)NC3(CC(C)(C)C3)C(=O)N(C)[C@@H](C3CCCC3)C(=O)N(C)[C@H](C(=O)N(C)C)CC(=O)N(C)[C@H]3CCCCCc4ccc(cc4)C[C@@H](C(=O)N(C)CC(=O)N[C@@H](CCc4ccc(C(F)(F)F)c(OC)c4)C(=O)N2C1)N1CC/C=C\C[C@@H](C1=O)N(C)C(=O)CN(C1CC1)C(=O)[C@H]([C@@H](C)CC)NC3=O [PP3075]
[1]
  NRAS/KRAS (ratio of KD value with respect to GDP-bound NRAS wild-type protein to KD value with respect to KRAS): A (a compound having 10 or more and less than 20 is denoted as A)
[2]
  HRAS/KRAS (ratio of KD value with respect to GDP-bound HRAS wild-type protein to KD value with respect to KRAS): A (a compound having 10 or more and less than 20 is denoted as A)

## CCO[C@@H]1C[C@H]2C(=O)NC3(CC(C)(C)C3)C(=O)N(C)[C@@H](C3CCCC3)C(=O)N(C)[C@H](C(=O)N(C)C)CC(=O)N(C)[C@H]3CCCCCc4ccc(cc4)C[C@@H](C(=O)N(C)CC(=O)N[C@@H](CCc4ccc(Cl)c(Cl)c4)C(=O)N2C1)N1CC/C=C\C[C@@H](C1=O)N(C)C(=O)CN(C)C(=O)[C@H]([C@@H](C)CC)NC3=O [PP3076]
[1]
  NRAS/KRAS (ratio of KD value with respect to GDP-bound NRAS wild-type protein to KD value with respect to KRAS): AA (a compound having 20 or more is denoted as AA)
[2]
  HRAS/KRAS (ratio of KD value with respect to GDP-bound HRAS wild-type protein to KD value with respect to KRAS): A (a compound having 10 or more and less than 20 is denoted as A)
